Measurements: patent publication US8053573B2, “Monomer 5, 6-diphenyl-1.2.4-traizinic derivatives and the use thereof” (Pierre Fabre Dermo-Cosmetique, priority 2004, dated 2011)
Where “and” joins values, the source holds several entries; their conditions need not be identical. Identical values can stand only once.

Assays:
Type in all cases: physicochemical
[1] = Photostability in solution in a chemical solvent (Suntest CPS+); conditions: 25 μg deposited from methanol, absorbance vs non-irradiated control, in % (unit assumed); for Photostability at 10 MED mean: Suntest irradiation 10 MED; for Photostability at 20 MED mean: Suntest irradiation 20 MED
Text: A Suntest CPS+ (Atlas, Linsengenicht/Altenhasslan, Germany) was used. The Suntest makes it possible to reproduce the solar spectrum and thus to carry out exposures inside at any time without weather constraints.
The radiance of the solar simulator was carefully measured with a spectroradiometer (MSS 2044, Bielefeld, Germany). UVB and UVA intensities were 0.49 mW/cm^2 and 6.32 mW/cm^2, respectively. The MED value defined by COLIPA is 5.6 J/cm^2 in total UV (22). The UV total (UVA+UVB) accounts for 14.8% of the energy delivered by the lamp (power 460 W/m^2). An irradiation dose equivalent to 1 MED corresponds to 37.83 J/cm^2 (in total spectrum) delivered by the lamp.
The Suntest test duration is calculated using the following formula: t=H/E with: […]
The solutions of the compounds are prepared at a concentration of 500 μg/ml in methanol. 50 μl (25 μg) of each solution are deposited in a crystallizer, then irradiated in the Suntest at 5, 10 and/or 20 MED. A non-irradiated control is prepared (deposit of 50 μl of solution and addition of 2.450 ml of methanol). The solvent evaporates during irradiation and the products are taken up in 2.5 ml of methanol. After irradiation, the absorbance of each solution is measured with the UV-visible spectrophotometer (Varian CARY 50 Scan).

[2] = In vitro SPF in a primary formula (gel on PMMA plates); conditions: PMMA plate, 1.2 mg/cm^2
Description: PMMA (polymethyl methacrylate) plates (50×50 mm, supplied by Europlast) were used.
The dose applied in the in vivo solar product evaluation protocols (2 mg/cm^2) is too high for the type of substrate employed here.
Gels were formulated from the triazines that are objects of this invention and certain reference filters. The molecules are solubilized in Transcutol® CG in a water bath. The solution is then placed under magnetic stirring and a gelling agent, Klucel HF (hydroxypropyl cellulose), is added at a concentration of 2%. Stirring is maintained for 30 minutes. SPF is measured using a Labsphere UV-1000 S Transmittance Analyzer spectrophotometer (Labsphere, North Sutton, N.H., USA).

[3] = Spectral distribution in UVA and UVB (290-400 nm); conditions: range from 290 nm to 400 nm
Text: The products tested are classified according to spectral distribution in UVA and UVB in a range from 290 nm to 400 nm.
It is possible to differentiate them according to their spectral distribution:
Products with a narrow spectrum: • Products absorbing in the range between 280 nm and 320 nm (UVB) • Products absorbing in the range between 320 nm and 400 nm (UVA) Products with a broad spectrum: • Products absorbing in UVB (280-320 nm) and UVA-II […] • Products covering UVB and UVA (280-400 nm).

[4] = Spectral characteristics: molar extinction coefficient and specific absorbance; conditions: ethyl acetate, 10 μg/ml; for Maximum specific absorbance UVB / Maximum specific absorbance UVA: A1cm^1%
Text: The calculation of the molar extinction coefficient (ε) is made from the Beer-Lambert law:
[formula] Wherein: A=absorbance I0=intensity of the incident light I=intensity of the transmitted light ε=molar extinction (or molar absorbance) coefficient in M^−1 cm^−1 l=path length in cm c=concentration in mol/l
The molar extinction coefficient can be expressed with respect to a given mass of the product. It thus makes it possible to be able to compare the coefficients of extinction between products for the same given quantity. This quantity is 1% by weight. The molar extinction coefficient thus becomes the specific absorbance (A1cm^1%).
[formula] Wherein: A1cm^1%=specific absorbance ε=molar extinction coefficient M=molar mass
The spectral characteristics of the compounds in comparison with commercial filters at a concentration of 10 μg/ml are summarized in tables 2-1 and 2-2.
Procedure: The products are dissolved in ethyl acetate to a concentration of 10 μg/ml. The spectra are measured using a dual-beam spectrophotometer (Varian CARY 50 Scan) between 290 nm and 400 nm.

[5] = In vitro SPF in a chemical solvent (Diffey and Robson); conditions: ethyl acetate solution, 10 μg/ml, transmittance 290-400 nm
Description: The in vitro methods of determining the protective effectiveness of sun products consist of measuring by transmission spectrophotometry the absorption spectrum of the filter in solution or of the product applied on a substrate with the aim of simulating the surface of the skin. The effectiveness against UVB and/or UVA rays, or the effect on the cutaneous response, are then determined by calculation, taking into account or not the UV radiation action spectrum for the damage considered.
The Sayre/Agin and Diffey/Robson method, used since the 1990s, involves a comparative measurement, with the aid of an integrating-sphere spectroradiometer, of the transition from 290 nm to 400 nm in 5 nm steps, the sample being subjected to UV radiation from a stable known source covering the whole of the UV spectrum (unfiltered xenon).
Diffey and Robson evaluate the erythemal response by the following calculation:
[formula] E(λ)=spectral irradiation in W(m^−2) (nm^−1) at 40° N sun at 20° zenith angle ε=erythematous capacity
The Diffey and Robson formula makes it possible to determine SPF from the measurement of transmittance between 290 nm and 400 nm. Transmittance is measured in solution in ethyl acetate at a concentration of 10 μg/ml using a UV-visible spectrophotometer (Varian CARY 50 Scan).

[6] = Solubility study in solvents or excipients used in cosmetics
[7] = Spectral characteristics: molar extinction coefficient and specific absorbance; conditions: ethyl acetate, 10 μg/ml
[8] = single filter 3% in Transcutol CG / Klucel HF gel
[9] = Finsol V NT ® (C12-C15 alkyl benzoate)

SMILES	Photostability at 10 MED mean [1]	Photostability at 20 MED mean [1]	Spectral distribution [3]	Maximum specific absorbance UVB [4]	Maximum molar extinction coefficient UVB [4]	Wavelength of maximum molar extinction coefficient UVB [4]	Wavelength of maximum specific absorbance UVB [4]	Solubility (%) [6, 9]	Solubility (%) ([6]; PEG400 ® (polyethylene glycol))	Maximum specific absorbance UVA [4]	Maximum molar extinction coefficient UVA [4]	Wavelength of maximum molar extinction coefficient UVA [4]	Wavelength of maximum specific absorbance UVA [4]	SPF [2, 8]	SPF [5]	further results
COc1ccc(C(=O)CC(=O)c2ccc(C(C)(C)C)cc2)cc1 [Parsol 1789 ®, reference compound]	57.04	6.26	only absorbs in UVA	–	–	–	–	–	–	1100	34100 M⁻¹ cm⁻¹	at 360	at 360	–	51.1	Maximum specific absorbance UVC ([7]; A1cm^1%): 278 at; Maximum molar extinction coefficient UVC [7]: 8633 at M^−1 cm^−1; Wavelength of maximum molar extinction coefficient UVC [7]: 275; Wavelength of maximum specific absorbance UVC [7]: 275
CCCCC(CC)COC(=O)C=Cc1ccc(OC)cc1 (stereo not shown) [Parsol MCX ®, reference compound]	33.38	11.63	–	848	24600 M⁻¹ cm⁻¹	at 310	at 310	–	–	–	–	–	–	–	20.78	SPF ([2]; single filter 5% in Transcutol CG / Klucel HF gel): 17.2
CCCCC(CC)COc1ccc(-c2nc(-c3ccc(OC)cc3)nc(-c3ccc(OCC(CC)CCCC)cc3O)n2)c(O)c1 (stereo not shown) [Tinosorb S ®, reference compound]	–	–	absorb in UVB and UVA	751	47150 M⁻¹ cm⁻¹	at 310	at 310	–	–	789	49580 M⁻¹ cm⁻¹	at 345	at 345	9.8	76.19	–

Now from value to molecule, other results behind:

Photostability at 10 MED mean [1]	Photostability at 20 MED mean [1]	Spectral distribution [3]	Maximum specific absorbance UVB [4]	Maximum molar extinction coefficient UVB [4]	Wavelength of maximum molar extinction coefficient UVB [4]	Wavelength of maximum specific absorbance UVB [4]	Solubility (%) [6, 9]	Solubility (%) ([6]; PEG400 ® (polyethylene glycol))	Maximum specific absorbance UVA [4]	Maximum molar extinction coefficient UVA [4]	Wavelength of maximum molar extinction coefficient UVA [4]	Wavelength of maximum specific absorbance UVA [4]	SMILES	SPF [2, 8]	SPF [5]	further results
96.91	85.5	absorb in UVB	809	31100 M⁻¹ cm⁻¹	at 315	at 315	1%	5%	–	–	–	–	COc1ccc(-c2nnc(-c3ccc(O)cc3)nc2-c2ccc(OC)cc2)cc1 [JR65, 3-(4-hydroxyphenyl)-5,6-bis(4-methoxyphenyl)-1,2,4-triazine]	9.8 and 10.9	68.21	Solubility (%) ([6]; Arlasolve DMI ® (dimethyl isosorbide)): 8%; Solubility (%) ([6]; Butylene glycol): 5%; Solubility (%) ([6]; Cetiol SN ® (decyl oleate)): 1%; Solubility (%) ([6]; Cetiol V ® (cetearyl isononanoate)): 2%; Solubility (%) ([6]; Hexylene glycol): 5%; Solubility (%) ([6]; Isopropyl adipate): 2%; Solubility (%) ([6]; Isopropyl myristate): 5%; Solubility (%) ([6]; Myritol 318 ® (caprylic/capric triglycerides)): 0.5%
–	–	absorb in UVB	878 at	48600 M⁻¹ cm⁻¹	at 305	305	7%	2%	–	–	–	–	CCCCCCCCCCCCOc1ccc(-c2nnc(-c3ccc(OC)cc3)c(-c3ccc(OC)cc3)n2)cc1 [JR173, 3-(4-dodecyloxyphenyl)-5,6-bis(4-methoxyphenyl)-1,2,4-triazine]	–	69.02	–
